Experimental findings from article PMC12057046, “Elucidation of short linear motif-based interactions of the MIT and rhodanese domains of the ubiquitin-specific protease 8” (Biology Direct, 2025) are described below.

In one experiment the test system is USP8 MIT domain. As to the kind of experiment: Peptide-phage display-based deep mutational scanning (DMS), USP8 MIT domain. In kind it is binding, human. As to conditions: bait USP8_MIT__P40818_1_142; EFCAB12 (Q6NXP0) 2-17; pair of mutant with wild-type wt_00016 (MDDDYEAYHSLFLSLL); sheet S3.B_ProP-PD_pairs. The gist of the method: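 Four rounds of phage selection against immobilized GST-tagged bait (GST control pre-clearing) at 4 °C, using human disorderome or 16-mer deep mutational scanning library (all non-Cys substitutions), ≥3 replicates. Enriched pools sequenced by Illumina NGS; replicate-summed counts converted to averaged fractions and frequency PSSMs per wild-type peptide.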
Regarding TDDDYEAYHSLFLSLL [mut_04335], the hit_pair_ratio was 30.76.
On the same count and under the same terms, as for VDDDYEAYHSLFLSLL [mut_04336], the figure is 42.24; as for WDDDYEAYHSLFLSLL [mut_04337], 1.74.
Still for that read-out and setting: as for YDDDYEAYHSLFLSLL [mut_04338], the figure is 1.04.

The experiment is the same for the next values; noted with them: bait USP8_MIT__P40818_1_142; MLPH 482-497; ratio of averaged fractions of wild-type/mutant peptide pair, larger over smaller (direction to be read from the two fractions).
On to SEVGDIESRIAALRAA, for which the hit_pair_ratio came to 2.28.
Turning to SEVHDIESRIAALRAA, the hit_pair_ratio is 28.09.
Still for that read-out and setting: as for SEVIDIESRIAALRAA, the figure is 6.39; as for SEVKDIESRIAALRAA, 8.70.
On to SEVLDIESRIAALRAA, for which the hit_pair_ratio came out at 9.47.
Take SEVMDIESRIAALRAA: the hit_pair_ratio came to 4.36.
For the sequence SEVNDIESRIAALRAA, the hit_pair_ratio is on record as 7.79.
Still for that read-out and setting: as for SEVQDIESRIAALRAA, the figure is 3.89; as for SEVRDIESRIAALRAA, 4.05.
On to SEVSDDESRIAALRAA, for which the hit_pair_ratio is given as 7.79.
Same read-out and setting: to SEVSDFESRIAALRAA belongs 49.08; to SEVSDHESRIAALRAA, 1.54.
SEVSDIEDRIAALRAA: the hit_pair_ratio is on record as 4.82.
With SEVSDIEERIAALRAA, the hit_pair_ratio was 7.79.
As for SEVSDIEGRIAALRAA, the hit_pair_ratio was determined as 2.60.
On the same count and under the same terms, to SEVSDIEHRIAALRAA belongs 4.62; to SEVSDIELRIAALRAA, 4.11.
Still for that read-out and setting: to SEVSDIEMRIAALRAA belongs 7.10; to SEVSDIENRIAALRAA, 1.11.
With SEVSDIEPRIAALRAA, the hit_pair_ratio is recorded as 7.79.
Still for that read-out and setting: to SEVSDIEQRIAALRAA belongs 1.11; to SEVSDIERRIAALRAA, 1.35.
With SEVSDIESREAALRAA, the hit_pair_ratio was 3.89.
On the same count and under the same terms, as for SEVSDIESRFAALRAA, the figure is 9.56.
In the case of SEVSDIESRIAAARAA, the hit_pair_ratio was 3.89.
On the same count and under the same terms, as for SEVSDIESRIAALHAA, the figure is 1.15; as for SEVSDIESRIAALIAA, 3.61; as for SEVSDIESRIAALLAA, 9.42.
On the same count and under the same terms, to SEVSDIESRIAALRAF belongs 7.79; to SEVSDIESRIAALRAI, 17.25; to SEVSDIESRIAALRAL, 1.15.
Same read-out and setting: as for SEVSDIESRIAALRAM, the figure is 108.17.
As to SEVSDIESRIAALRAV, the hit_pair_ratio was found to be 1.51.
For the sequence SEVSDIESRIAALRAY, the hit_pair_ratio is on record as 1.28.
In the case of SEVSDIESRIAALREA, the hit_pair_ratio was found to be 7.79.
With SEVSDIESRIAALRMA, the hit_pair_ratio was found to be 17.19.
On the same count and under the same terms, to SEVSDIESRIAALRNA belongs 7.79; to SEVSDIESRIAALRWA, 7.79; to SEVSDIESRIAALRYA, 7.79.
Consider SEVSDIESRIAALTAA, for which the hit_pair_ratio worked out at 7.79.
The same measure, in the same setting: to SEVSDIESRIAALVAA belongs 18.10; to SEVSDIESRIAASRAA, 1.95; to SEVSDIESRIAATRAA, 7.79.
In the case of SEVSDIESRIAAWRAA, the hit_pair_ratio amounted to 2.60.
Same read-out and setting: as for SEVSDIESRIAELRAA, the figure is 1.95.
As to SEVSDIESRIALLRAA, the hit_pair_ratio amounted to 1.95.
Regarding SEVSDIESRIAMLRAA, the hit_pair_ratio amounted to 1.77.
Still for that read-out and setting: to SEVSDIESRIAVLRAA belongs 2.60.
Regarding SEVSDIESRIDALRAA, the hit_pair_ratio stood at 7.79.
In the case of SEVSDIESRIEALRAA, the hit_pair_ratio was determined as 2.26.
Consider SEVSDIESRIKALRAA, for which the hit_pair_ratio worked out at 3.89.
The same measure, in the same setting: as for SEVSDIESRIMALRAA, the figure is 6.39; as for SEVSDIESRINALRAA, 7.79; as for SEVSDIESRISALRAA, 1.49.
On the same count and under the same terms, to SEVSDIESRKAALRAA belongs 7.79; to SEVSDIESRQAALRAA, 2.60.
Consider SEVSDIKSRIAALRAA, for which the hit_pair_ratio is on record as 3.89.
In the case of SEVSDISSRIAALRAA, the hit_pair_ratio is 1.56.
Consider SEVSDITSRIAALRAA, for which the hit_pair_ratio stood at 1.11.
Still for that read-out and setting: as for SEVSDRESRIAALRAA, the figure is 2.60; as for SEVSDTESRIAALRAA, 3.89; as for SEVSDVESRIAALRAA, 7.79.
As for SEVSDYESRIAALRAA, the hit_pair_ratio is on record as 2.23.
As to SEVSEIESRIAALRAA, the hit_pair_ratio is listed as 1.80.
On the same count and under the same terms, as for SEVSHIESRIAALRAA, the figure is 7.79; as for SEVSNIESRIAALRAA, 3.89; as for SEVSYIESRIAALRAA, 7.79.
The same measure, in the same setting: to SEVVDIESRIAALRAA belongs 12.32; to SEVWDIESRIAALRAA, 1.49.
On the same count and under the same terms, to SEVYDIESRIAALRAA belongs 346.56; to SEWSDIESRIAALRAA, 1.11; to SEYSDIESRIAALRAA, 1.74.

Staying with this experiment, now noted: sheet S3.B_ProP-PD_pairs; bait USP8_MIT__P40818_1_142; ratio within the wild-type/mutant pair, larger over smaller averaged fraction (direction from fraction_wt and fraction_mut).
With SHVSDIESRIAALRAA, the hit_pair_ratio is 1.51.
The same measure, in the same setting: as for SKVSDIESRIAALRAA, the figure is 3.89; as for SLVSDIESRIAALRAA, 1.11; as for SMVSDIESRIAALRAA, 7.79.
The same measure, in the same setting: as for SNVSDIESRIAALRAA, the figure is 1.35; as for SPVSDIESRIAALRAA, 1.56; as for SQVSDIESRIAALRAA, 1.00.
In the case of SRVSDIESRIAALRAA, the hit_pair_ratio is recorded as 3.31.
Still for that read-out and setting: to SSVSDIESRIAALRAA belongs 24.28.
Still for that read-out and setting: to SVVSDIESRIAALRAA belongs 2.60.
The same measure, in the same setting: as for SYVSDIESRIAALRAA, the figure is 1.00.
With TEVSDIESRIAALRAA, the hit_pair_ratio stood at 6.74.
On the same count and under the same terms, to VEVSDIESRIAALRAA belongs 3.36; to WEVSDIESRIAALRAA, 13.49; to YEVSDIESRIAALRAA, 4.18.
